Here are results for 4 compounds from US20090074885A1, “Reversible Hydrophobic Modification of Drugs for Improved Delivery to Cells” (Roche Madison Inc., priority 2003, published 2009).

Like-named read-outs stand apart in the source and are kept apart here.

Data set [1] relates to B16 murine melanoma cells. The experiment in a line: CellTiter-Glo luminescent cell viability assay. The format is cell-based. To be noted: 10 min drug solution exposure, 3 h in media, 24 h culture; up to 112 μl delivery solution per well. As to the method: Cells were seeded at 1×10^4 cells/well in 100 μl of media into 96-well plates on day 0 and cultured for 24 h prior to addition of drug. […] Following 10 min of drug solution exposure, 100 μl of fresh media was added to each well and incubated for 3 h. Drug-containing media was replaced with 100 μl of fresh media and cultured for and additional 24 h.

Data set [2] deals with Hepa 1-6 (mouse hepatoma). The experiment in a line: WST cytotoxicity assay, Hepa 1-6. The data set is classed as cell-based. As to the method:
(§1) Antiproliferative/Cytotoxic in vitro studies on PI, RRH-PI prodrugs, melphalan, and C12PMMA-melphalan. In vitro cytotoxicity testing was conducted on Hepa 1-6 (mouse hepatoma), SK-OV-3 (human ovarian carcinoma), and MC38 (mouse colon carcinoma) cells using a tetrazolium based assay (WST, Dojindo Molecular Technologies). For the WST assay, Hepa 1-6 (2.0×10^5 cells well), SK-OV-3 (7.5×10^5 cells well), and MC38 (8.5×10^5 cells well) were seeded in 1000 μL media into 12-well plates 24 h prior to testing (starting confluency ˜50%). Following removal of media, drug/prodrug solution was added drop-wise to quadruplicate wells, using the mixing chamber. Effective drug concentrations were calculated from the amount of drug added in the total volume of OS and aqueous solution. Following 4 min of drug solution exposure, the solution was removed, and 1000 μl fresh complete media was added to each well. After the cells were incubated for 24-48 h, WST-1 (20 μl of a 5 mM solution in PBS) and N-methylphenazonium methyl sulfate (PMS, 20 μl 0.2 mM solution in PBS) were added and the cells were incubated for 1-4 h. For testing with MC38 cells, the amounts of WST-1 and PMS were doubled. Following incubation, 100 μl of sample was transferred to quadruplicate wells on a 96-well plate, and the absorbance (438 nm) values were measured on a SPECTRAmax Plus^384 microplate spectrophotometer (Molecular Devices Corporation). Data represents the mean A438 values of 16 wells with standard deviation, corrected for media contribution, and normalized against cells in media with no drug/prodrug treatment (reported as % cell viability±standard deviation).
(§2) The concentration of drug (μM) that is required for 50% inhibition in vitro is reported as the IC50. The reported values were calculated from the best fit line (Excel) for a plot of effective drug concentration against % cell viability, and include the r^2 value. The reported IC50 values for multiple RRH-PI plots are reported as IC50 (μM)±standard deviation.

The nature of data set [3]: Qualitative 90° light scattering for particles. The format is physicochemical. To be noted: relative to ITG or PI in ITG. As to the method: (§3) Light Scattering analysis of prodrugs. Particle size was determined by dynamic light scattering on a Zeta Plus (Zeta Potential Analyzer, Brookhaven Instrument Corporation, λ 533 nm, 90°), and results are reported as the size of the most abundant particle (range of particle sizes, counts sec^−1). Fluorescent compounds were also analyzed for particles qualitatively, by measuring for light scattering on a Cary Eclipse Fluorescence Spectrophotometer (Varian Inc.), with λex=λem (300-800 nm, 90° detection). The presence of particles in solution results in an increase in signal detection at 90°. PI and RRH-PI prodrugs were 7.48 mM in DMSO. Melphalan and V were 50 mM in DMSO. The drug/prodrug solutions were mixed and diluted with ITG through the mixing chamber (40 μl OS and 400 μl ITG), and analyzed immediately.

A short description of data set [4]: Analysis of prodrug lability (rate of hydrolysis) of PI derivatives by fluorescent spectroscopy. To be noted: extrapolated to pure buffer (100 mol % H2O). The data set is classed as physicochemical. As to the method: (§4) Analysis of prodrug lability. The prodrugs were tested for their rate of hydrolysis at pH 6.0, 7.2 and 8.5 using fluorescent spectroscopy. Lability studies for C12CON-PI and RRH-PI (rapidly reversible hydrophobic-PI) derivatives were conducted on a Cary Eclipse Fluorescence Spectrophotometer (Varian Inc.).
To solutions of PI and RRH-prodrugs of PI (7.48 μM in DMSO) were added various amounts of buffer (25 μL, 50 μL, and 100 μL of 20 mM Hepes buffer) at different pH. Upon cleavage of the hydrophobic modification and regeneration of PI, the fluorescence of the solution increased (λex=493 nm, λem=647 nm, excitation and emission slit width=5 nm, and emission PMT=600V) and was assayed as a function of time (20 min).
(§5) The resulting curves were normalized for intensity and fit to an exponential equation (Origin) to determine kdetermined for each solution. The kdetermined for each compound at appropriate pH were plotted against the mol % of H2O, and the best fit line was solved for kbuffer for 100 mol % H2O. These derived kbuffer values were used to determine the half-life of the prodrug in pure buffer according to the equation t1/2=1n2/k.

Data set [5] deals with SK-OV-3 (human ovarian carcinoma). Briefly: WST cytotoxicity assay, SK-OV-3. The format is cell-based. As to the method:
as §1, §2

Data set [6] has as its system SK-OV-3 (human ovarian carcinoma) cells. Briefly: In vitro cellular uptake by fluorescence microscopy, SK-OV-3. The format is cell-based. To be noted: fluorescein channel. As to the method: In Vitro cellular uptake of PI, RRH-PI compounds, and IV evaluated by fluorescence measurements. […] Adherent cells were plated at 2.5×10^5 cells/well on 6-well plates 24 h prior to testing. The growth media was removed from individual wells and the drug/prodrug was immediately added to the well with the mixing chamber. […] After 30 sec the drug solution was removed (aspirated) and 2 ml complete media was added to the cells. Experiments conducted with prodrug that was hydrolyzed prior to application to the cells followed a similar protocol, however the combined solution obtained after passing through the mixing chamber was collected and allowed to sit at ambient temperature for 5 min prior to application on the cells. Experiments conducted with Calcein AM (Invitrogen, 100 μl of 20 μM solution in complete media) followed a similar protocol for drug treatment (4 min treatment). Experiments conducted with SYTOX Green (Invitrogen) followed a similar protocol for drug treatment. […] Each condition was repeated in 2 or 3 wells, and the cells were immediately examined by microscopy. Fluorescent microscopy studies were conducted with a three laser LSM 510 confocal microscope, an Axiovert S100 fluorescent microscope, or an Axioplan2 fluorescent microscope (all Zeiss) equipped with filter sets for the rhodamine fluorescence channel (λex=BP 450/12, λem=LP 590 nm filter set) and the fluorescein fluorescent channel (λex=BP 546/90, λem=LP 515 nm filter set). Imaging was performed with an AxioCam digital camera (Zeiss), with AxioVision imaging software (V 4.5, Zeiss). For all images, identical camera settings and exposure times were used on comparative sample and control images. Images were processed with Photoshop (Adobe) for level and brightness using identical settings between sample and control images. For experiments conducted with IV, the cells were plated on 6-well plates with cover slips. […] Imaging was conducted on an Axioplan2 fluorescent microscope (Zeiss) and the same fields were imaged with phase contrast illumination, in the rhodamine fluorescence channel (λex=BP 450/12, λem=LP 590 nm filter set), and in the fluorescein fluorescent channel (λex=BP 546/90, λem=LP 515 nm filter set). IV was also mixed with PI and then delivered to SK-OV-3 cells, and the cells were imaged as before. In one protocol, equal amounts of IV (15.0 mM in DMSO) and PI (15.0 mM in DMSO) were combined and the resulting solution was added to cells via the mixing chamber. In a second method, PI was taken up in the ITG solution (0.748 mM) and mixed with IV (7.48 mM in DMSO) in the mixing chamber. […] The cells were imaged as before following 30 sec-4 min exposure to the drug solution.

The next data set deals with SK-OV-3 cells. Briefly: Uptake of PI mixed with hydrophobic derivative (membrane damage test), SK-OV-3. The data set is classed as cell-based, human. Conditions: compared to cells treated with PI alone. As to the method: (§6) For experiments conducted with IV, the cells were plated on 6-well plates with cover slips. Following treatment as above, the cover slip was immediately removed and inverted over 1 drop of media for imaging, or the cells were incubated for 1 h prior to removal of the cover slip and imaging. Imaging was conducted on an Axioplan2 fluorescent microscope (Zeiss) and the same fields were imaged with phase contrast illumination, in the rhodamine fluorescence channel (λex=BP 450/12, λem=LP 590 nm filter set), and in the fluorescein fluorescent channel (λex=BP 546/90, λem=LP 515 nm filter set). IV was also mixed with PI and then delivered to SK-OV-3 cells, and the cells were imaged as before. In one protocol, equal amounts of IV (15.0 mM in DMSO) and PI (15.0 mM in DMSO) were combined and the resulting solution was added to cells via the mixing chamber. In a second method, PI was taken up in the ITG solution (0.748 mM) and mixed with IV (7.48 mM in DMSO) in the mixing chamber. Similarly, V (15 mM and 30 mM in DMSO) was mixed with PI and delivered to Hepa 1-6 and SK-OV-3 cells using the second method. The cells were imaged as before following 30 sec-4 min exposure to the drug solution.

Data set [7] in a line: Dynamic light scattering particle size. The format is physicochemical. Conditions: following mixing with ITG through mixing chamber. As to the method:
as §3

Data set [8] deals with MC38 (mouse colon carcinoma). The experiment in a line: WST cytotoxicity assay, MC38. Conditions: MC38, 4 min drug exposure, WST 48 h after. The format is cell-based. As to the method:
as §1, with “For testing with MC38 cells, the amounts of WST-1 and PMS were doubled.” left out, “Data represents the mean A438 values of 16 wells with standard deviation, corrected for media contribution, and normalized against cells in media with no drug/prodrug treatment (reported as % cell viability±standard deviation).” left out

Data set [9] is described as follows: Hydrolysis of V monitored by reaction of liberated melphalan with fluorescamine. The format is physicochemical. To be noted: pH 6.0; for Half-life: extrapolated to pure buffer (100 mol % H2O). As to the method:
as §4
Alternatively, to solutions of fluorescamine (857 μM in DMSO) were added various amounts of buffer (20 μL, 30 μL, 40 μL, 50 μL, and 70 μL of 100 mM MES buffer, pH 6.0) followed by melphalan or V (249 μM final concentration in DMSO). The fluorescence of the solution (λex=380 nm, λem=464 nm, excitation and emission slit width=5 nm, and emission PMT=600V) was assayed as a function of time (40 min). At each buffer concentration the reaction of fluorescamine and melphalan was more rapid than hydrolytic breakdown of V.
as §5

The nature of data set [10]: Trypan blue assay for membrane disruption. The data set is classed as cell-based.
A further data set concerns Hepa 1-6. Briefly: Uptake of PI mixed with hydrophobic derivative (membrane damage test), Hepa 1-6. The data set is classed as cell-based, mouse. Conditions: compared to PI alone. As to the method: as §6
Setting [11] is: Hepa 1-6, 4 min drug exposure, WST 48 h after, read-out: Mean IC50.
The mark [12] stands for this setting: SK-OV-3, 4 min drug exposure, WST 48 h after, read-out: Mean IC50.

Turning to `CCCCCCCCCCCCCCCCCC[Si](C)(C)N.CCCCCCCCCCCCCCCCCC[Si](C)(C)N.[Cl][Pt][Cl]` [BDMODS-CP, Cl2Pt(NH2Si(CH3)2C18H37)2], in [1], the “antiproliferative/cytotoxic effect (RLU)” value is listed as “complete cytotoxic effect”.
Broadly, the IC50 is the midpoint of a concentration-inhibition curve. For `CCCCCCCCCCCC(=O)Nc1ccc2c(c1)c(-c1ccccc1)[n+](CCC[N+](C)(CC)CC)c1cc(NC(=O)CCCCCCCCCCC)ccc21.[I-].[I-]` [IV, 3,8-bis-undecylcarbanylamino 5-(3,3-diethyl-3-methylammoniumpropyl) 6-phenyl phenanthridinium diiodide], the IC50 in [2] (Hepa 1-6, 4 min drug exposure, WST 24 h after, read-out: Mean IC50) is 585 µM; in data set [2] (setting [11]) it was 429 µM; in data set [5] (SK-OV-3, 4 min drug exposure, WST 24 h after, read-out: Mean IC50), 455 µM; in [5] (setting [12]) it was 342 µM. In addition, the “increase in 90° light scattering signal intensity” value in data set [3] is on record as 15 fold. Moreover, the Half-life entry in data set [4] (pH 7.2) and in [4] (pH 8.5) was “non-labile” in each case. Moreover, the fluorescent signal localisation entry is “more defined punctate signal” in [6] (after one hour incubation) and “diffuse signal was observed along the cell membrane” in data set [6] (immediately following application). For the same compound, the “nuclear PI staining when delivered together with PI” value in the data set with SK-OV-3 cells is “no increased levels of nuclear PI staining detected”. The “range of particle sizes” value in data set [7] is 28-42 nm. Moreover, the “size of the most abundant particle” value in data set [7] is recorded as 36 nm.
Take `N[C@@H](Cc1ccc(N(CCCl)CCCl)cc1)C(=O)O` [Melphalan, reference compound]: the viability at 1458 µM was found to be 81% in [2] (Mus musculus, Hepa1-6, 48 h, read-out: cell viability at highest concentration tested, Hepa 1-6, 48 h, 1458 μM) and 70 ± 11% in data set [5] (Homo sapiens, SK-OV-3, 48 h, read-out: cell viability at highest concentration tested, SK-OV-3, 48 h, 1458 μM). The IC50 in [2] (Mus musculus, Hepa1-6, read-out: Mean IC50) is > 1460 µM; in [8] (Mus musculus, MC-38) it was 1180 µM; in data set [5] (Homo sapiens, SK-OV-3, read-out: Mean IC50), > 1460 µM.
Regarding `CCCCCCCCCCCCNC(=O)CCC(=CCC(=O)O)C(=O)NC(Cc1ccc(N(CCCl)CCCl)cc1)C(=O)O` (centres unmarked) [V, 3,9-diaza, 2-[4-{bis(2-chloroethyl)amino}phenylmethyl], 5-(2-carboxylethylidine), 4,8-dioxo uncosanoic acid], the IC50 in [2] (setting [11]) was found to be 330 µM; in data set [8], 304 µM; in [5] (setting [12]), 384 µM. For the same compound, the k result in data set [9] is “(1.62 min^−1)”. Moreover, the Half-life in [9] was 28 s; in [9] (listed as C12PMMA-Melphalan (V)) it was 25.7 s. The generalized membrane disruption entry in [10] is recorded as “neither V or methyl aniline silylated with chloro(dimethyl)octadecylsilane caused generalized membrane disruption”. Also, the “nuclear PI staining when delivered together with PI” value in the data set on Hepa 1-6 and in the data set on SK-OV-3 cells was “no increased levels of nuclear PI staining were observed” in each case. In addition, the “range of particle sizes” value in data set [7] was 36-66 nm. The “size of the most abundant particle” value in data set [7] is reported as 36 nm.
